According to the supplement of paper PMC10307832:

Experiments:
Test in all cases: relative viability (nuclei count vs DMSO), 5 days (fraction); higher = more cells survive
Vismodegib + OSI-027 = compound: CS(=O)(=O)c1ccc(C(=O)Nc2ccc(Cl)c(-c3ccccn3)c2)c(Cl)c1 [Vismodegib] + COc1cccc2cc(-c3nc([C@H]4CC[C@H](C(=O)O)CC4)n4ncnc(N)c34)[nH]c12 [OSI-027] (partner 0.5 µM)
How it was run: (§1)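 Relative viability divides the nuclei count in treated wells by that in vehicle wells. Lung cancer cell lines were seeded in 1536-well plates, dosed by pin tool the next day, and fixed and stained after 5 days in one step with final 0.05% Triton X-100, 1% formaldehyde and 1 ug/ml Hoechst. Dosing was a single drug or a fixed anchor-drug dose plus five library-drug doses (not always all listed) in √10 steps, and values are medians of duplicate plates imaged at 4×.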

VE-821 + Luminespib = compound: CS(=O)(=O)c1ccc(-c2cnc(N)c(C(=O)Nc3ccccc3)n2)cc1 [VE-821] + CCNC(=O)c1noc(-c2cc(C(C)C)c(O)cc2O)c1-c1ccc(CN2CCOCC2)cc1 [Luminespib] (partner 0.01 µM)
How it was run: as §1

VE-821 + Dasatinib = compound: CS(=O)(=O)c1ccc(-c2cnc(N)c(C(=O)Nc3ccccc3)n2)cc1 [VE-821] + Cc1nc(Nc2ncc(C(=O)Nc3c(C)cccc3Cl)s2)cc(N2CCN(CCO)CC2)n1 [Dasatinib] (partner 0.075 µM)
How it was run: as §1

Ruxolitinib + Vorinostat = compound: N#CC[C@H](C1CCCC1)n1cc(-c2ncnc3[nH]ccc23)cn1 [Ruxolitinib] + O=C(CCCCCCC(=O)Nc1ccccc1)NO [Vorinostat] (partner 1 µM)
How it was run: as §1

Cell Line	relative viability (Vismodegib + OSI-027; first compound 0.08 µM)	relative viability (Vismodegib + OSI-027; first compound 0.253 µM)	relative viability (Vismodegib + OSI-027; first compound 0.8 µM)	relative viability (Vismodegib + OSI-027; first compound 2.53 µM)	relative viability (Vismodegib + OSI-027; first compound 8 µM)	relative viability (VE-821 + Luminespib; first compound 0.08 µM)	relative viability (VE-821 + Luminespib; first compound 0.253 µM)	relative viability (VE-821 + Luminespib; first compound 0.8 µM)	relative viability (VE-821 + Luminespib; first compound 2.53 µM)	relative viability (VE-821 + Luminespib; first compound 8 µM)	relative viability (VE-821 + Dasatinib; first compound 0.08 µM)	relative viability (VE-821 + Dasatinib; first compound 0.253 µM)	relative viability (VE-821 + Dasatinib; first compound 0.8 µM)	relative viability (VE-821 + Dasatinib; first compound 2.53 µM)	relative viability (VE-821 + Dasatinib; first compound 8 µM)	relative viability (Ruxolitinib + Vorinostat; first compound 0.08 µM)	relative viability (Ruxolitinib + Vorinostat; first compound 0.253 µM)	relative viability (Ruxolitinib + Vorinostat; first compound 0.8 µM)	relative viability (Ruxolitinib + Vorinostat; first compound 2.53 µM)	relative viability (Ruxolitinib + Vorinostat; first compound 8 µM)
NCI-H460	0.644	0.603	0.684	0.622	0.559	0.0302	0.0482	0.0362	0.0342	0.0308	0.58	0.488	0.428	0.261	0.223	0.847	0.774	0.819	0.599	0.516
NCI-H520	0.284	0.227	0.298	0.314	0.309	0.218	0.24	0.191	0.276	0.227	0.232	0.23	0.166	0.298	0.165	0.758	0.858	0.752	0.844	0.654
NCI-H522	0.805	0.742	0.672	0.659	0.812	1.11	1.21	0.958	0.997	0.897	0.77	0.918	0.704	0.902	0.825	0.949	0.868	0.978	0.873	0.859
NCI-H596	0.791	0.634	0.672	0.734	0.781	0.978	1.09	1	1.03	0.738	0.545	0.653	0.643	0.679	0.615	0.713	0.638	0.743	0.589	0.454
NCI-H647	0.665	0.605	0.671	0.486	0.579	0.257	0.344	0.168	0.131	0.158	0.232	0.168	0.152	0.194	0.122	0.694	0.729	0.683	0.538	0.286
NCI-H650	0.604	0.513	0.454	0.511	0.491	0.986	0.94	0.662	0.883	0.798	0.501	0.445	0.465	0.528	0.426	0.532	0.423	0.406	0.44	0.429
NCI-H661	0.735	0.705	0.723	0.738	0.731	0.88	0.944	0.958	0.914	0.803	0.934	0.668	0.884	0.865	0.434	0.833	0.822	0.839	0.792	0.802
NCI-H727	0.57	0.451	0.446	0.528	0.655	0.317	0.342	0.368	0.346	0.353	0.457	0.334	0.374	0.32	0.317	1.2	1.19	1.4	1.12	1.49
